Data published in patent US20090047655A1, “Method Of Screening Candidate Drug” (priority 2004, published 2009).
Like-named read-outs stand apart in the source and are kept apart here.

Tests used:
[1] = mouse, in vivo; for AUC: uPA(+/+)/SCID
Excerpt: (§1) As for the chimeric mice, chimeric mice produced by Hiroshima Prefectural Institute of Industrial Science and Technology or PhoenixBio Co., Ltd. were used. To be more specific, mice in which human hepatocytes were engrafted and proliferated in the mouse liver were produced by transplanting human hepatocytes (IVT079, purchased from In Vitro Technology Inc., or BD51, purchased from BD Gentest Inc.) into the spleen of uPA(+/+)/SCID mice, which are mice having hepatic impairment and immunodeficiency. Mice in which 70% or more of the mouse liver had been replaced with human hepatocytes (high-replacement chimeric mice) and low-replacement chimeric mice in which although human hepatocytes had been transplanted, the replacement ratio was almost 0%, or untransplanted mice (mice with no replacement) were used (3 mice in each group). Further, as a control, 3 uPA(−/−)/SCID mice were used.
(§2) The concentration for administration of tolbutamide which is a standard drug for CYP2C9 was […]., and 4.175 mg of tolbutamide was weighed out and suspended in 1 ml of a CMC liquid in an agate mortar, and a 4.175 mg/ml suspension which is 5 times as high as the concentration for administration was prepared.
(§3) To the high-replacement chimeric mice, low-replacement chimeric mice (or mice with no replacement) and uPA(−/−)/SCID mice (3 mice in each group), 5 compounds were simultaneously administered orally by gavage or intravenously. The blood was collected from the tail vein of each mouse in an amount of 15 μl each at 0.25 (only intravenous administration), 0.5, 1, 2, 4 (only oral administration) and 8 hours after administration. Then, the blood was centrifuged at 3,500 rpm for 5 minutes, and the serum (supernatant) was collected and stored in a freezer at −30° C.
(§4) The serum samples were transported to Sumika Chemical Analysis Service, Ltd. while keeping it in dry ice, and subjected to measurement by LC-MS/MS according to the following procedure.
(§5) With regard to a liquid chromatograph, SIL-HTC and LC-10A series (Shimadzu Corporation) were used, and as a column, Synergi 4μ Polar-RP 80A, 150 mm (length)×2.00 mm (inner diameter), 4 μm (Phenomenex Inc.) was used at 30° C. As a mobile phase, methanol/a 10 mmol/l ammonium acetate solution/acetic acid (700/300/2, v/v/v) was used, and a flow rate was set at 0.2 ml/min. An injection volume was set at 2 μl, a measurement time was set at 10 min, and the temperature of an autosampler was set at 4° C. As a mass spectrometer, Tandem Mass Spectrometer API 4000 (Applied Biosystems/MDS SCIEX Inc.) was used. As API interface, Turbo V (ESI probe) was used, and as Ionization mode, Positive ion detection mode was used.
To Eppendorf tubes in which 5 μl of samples to be measured (serum) were contained, 100 μl of methanol was added, and 10 μl of 1 μg/ml of I.S. standard solution was added thereto, and then, the mixtures were thoroughly mixed by an ultrasonic treatment and a vortex mixer. […]
(§6) The determined values of the drug concentration in the serum were calculated from the peak area ratio obtained by the LC-MS/MS measurement of the samples for addition calibration curve. […] From the graphs, the peak serum concentration (Cmax), half-life (t1/2), area under the curve (AUC), bioavailability and clearance were analyzed, and pharmacokinetics in human was predicted.

CYP2D6 = test: in vivo; conditions: uPA(+/+)/SCID, po
Experimental: As for the chimeric mice, chimeric mice produced in PhoenixBio Co., Ltd. were used. To be more specific, 3 mice in which human hepatocytes were engrafted and proliferated in the mouse liver were produced by transplanting human hepatocytes (BD51, purchased from BD Gentist Inc.) into the spleen of uPA(+/+)/SCID mice, which are mice having hepatic impairment and immunodeficiency.
Paroxetine was dissolved in Milli-Q water (using a bath-type ultrasonic device) and prepared to give a final concentration of 6 mg/ml. The prepared drug was intraperitoneally administered to the mice at a dose of 5 μl/g b.w. (30 mg/kg b.w./day).
To the high-replacement chimeric mice, paroxetine was intraperitoneally administered for 3 days. Then, in the same manner as in Example 1, 5 compounds were simultaneously administered orally by gavage, the blood was collected over time, and the serum was stored.
The determination and analysis of drugs in the serum were carried out in the same manner as in Example 1.
The determined values of the drug concentration in the serum were calculated from the peak area ratio obtained by the LC-MS/MS measurement of the samples for addition calibration curve. […] From the graphs, Cmax, t1/2 and AUC were analyzed.

in vivo = conditions: for half-life / AUC / bioavailability / Cmax / t 1/2 Distribution phase: mouse, in vivo
Excerpt: as §1, §2, §3, §4, §5
To Eppendorf tubes in which 5 μl of samples to be measured (serum) were contained, 100 μl of methanol was added, and 10 μl of 1 μg/ml of I.S. standard solution was added thereto, and then, the mixtures were thoroughly mixed by an ultrasonic treatment and a vortex mixer. The resulting mixtures were centrifuged (15,000 rpm, 5 min, room temperature), and the resulting supernatants were subjected to centrifugal filtration (10,000 rpm, 2 min, room temperature) with a filter, and the resulting filtrates were used as injection samples for LC-MS/MS.
as §6

[2] = mouse, t 1/2 Distribution phase
[3] = uPA(−/−)/SCID, iv, t 1/2 Distribution phase
[4] = uPA(−/−)/SCID, iv, t 1/2 Elimination phase

## COc1ccc2[nH]c([S+]([O-])Cc3ncc(C)c(OC)c3C)nc2c1 (centres unmarked) [Omeprazole, omeprazole]
[1]
  AUC: 322 ng·h/mL
CYP2D6; mouse
  AUC: 964 ng·h/mL
CYP2D6; [2]
  half-life: 0.3 h
CYP2D6; mouse, t 1/2 Elimination phase
  half-life: 1.55 h
In vivo; uPA(+/+)/SCID, po, t 1/2 Elimination phase
  half-life: 1.03 h
In vivo; uPA(−/−)/SCID, iv
  AUC: 840 ng·h/mL
In vivo; [3]
  half-life: 0.24 h
In vivo; [4]
  half-life: 0.971 h
In vivo; uPA(−/−)/SCID, po
  AUC: 114 ng·h/mL
  bioavailability: 1.36%
  Cmax: 94 ng/mL

## COc1ccc2c(c1)[C@]13CCCC[C@@H]1[C@H](C2)N(C)CC3 [Dextromethorphan, dextromethorphan]
CYP2D6; in vivo
  AUC: 358 ng·h/mL
CYP2D6; in vivo, 30 mg/kg/day
  Cmax: 156 ng/mL
CYP2D6; in vivo, t 1/2 Distribution phase, high-replacement chimeric mouse, donor BD51, inhibitor paroxetine, time window per footnote
  half-life: 1.44 h
CYP2D6; in vivo, t 1/2 Elimination phase, high-replacement chimeric mouse, donor BD51, inhibitor paroxetine, time window per footnote
  half-life: 5.29 h
In vivo; donor hepatocytes IVT079
  AUC in high-replacement chimeric mice compared with low-replacement chimeric mice: significantly lower
In vivo; uPA(+/+)/SCID, iv, intravenous administration, high-replacement chimeric mouse, donor IVT079
  AUC: 4030 ng·h/mL
In vivo; uPA(+/+)/SCID, iv, intravenous administration, low-replacement chimeric mouse, donor IVT079
  AUC: 4600 ng·h/mL
In vivo; uPA(+/+)/SCID, iv, t 1/2 Distribution phase, intravenous administration, high-replacement chimeric mouse, donor IVT079, time window per footnote
  half-life: 3.15 h
In vivo; uPA(+/+)/SCID, iv, t 1/2 Distribution phase, intravenous administration, low-replacement chimeric mouse, donor IVT079, time window per footnote
  half-life: 0.414 h
In vivo; uPA(+/+)/SCID, iv, t 1/2 Elimination phase, intravenous administration, high-replacement chimeric mouse, donor IVT079, 2-8 hr
  half-life: 1.23 h
In vivo; uPA(+/+)/SCID, iv, t 1/2 Elimination phase, intravenous administration, low-replacement chimeric mouse, donor IVT079, 2-8 hr
  half-life: 1.5 h
In vivo; uPA(+/+)/SCID, po, oral administration, high-replacement chimeric mouse, donor IVT079
  AUC: 1020 ng·h/mL
In vivo; uPA(+/+)/SCID, po, oral administration, low-replacement chimeric mouse, donor IVT079
  AUC: 3650 ng·h/mL
In vivo; uPA(+/+)/SCID, po, high-replacement chimeric mouse, donor IVT079
  bioavailability: 2.53%
In vivo; uPA(+/+)/SCID, po, low-replacement chimeric mouse, donor IVT079
  bioavailability: 7.93%
In vivo; uPA(+/+)/SCID, po, oral administration, high-replacement chimeric mouse, donor IVT079, serum
  Cmax: 276 ng/mL
In vivo; uPA(+/+)/SCID, po, oral administration, low-replacement chimeric mouse, donor IVT079, serum
  Cmax: 836 ng/mL
In vivo; uPA(+/+)/SCID, po, t 1/2 Distribution phase, oral administration, high-replacement chimeric mouse, donor IVT079, time window per footnote
  half-life: 1.15 h
In vivo; uPA(+/+)/SCID, po, t 1/2 Distribution phase, oral administration, low-replacement chimeric mouse, donor IVT079, time window per footnote
  half-life: 2.88 h
In vivo; uPA(+/+)/SCID, po, t 1/2 Elimination phase, oral administration, high-replacement chimeric mouse, donor IVT079, time window per footnote
  half-life: 10.4 h
In vivo; uPA(+/+)/SCID, po, t 1/2 Elimination phase, oral administration, low-replacement chimeric mouse, donor IVT079, time window per footnote
  half-life: 9.98 h
In vivo; uPA(−/−)/SCID, iv, intravenous administration, uPA(−/−)/SCID mouse
  AUC: 2610 ng·h/mL
In vivo; uPA(−/−)/SCID, iv, t 1/2 Distribution phase, intravenous administration, uPA(−/−)/SCID mouse, time window per footnote
  half-life: 0.47 h
In vivo; uPA(−/−)/SCID, po, oral administration, uPA(−/−)/SCID mouse
  AUC: 580 ng·h/mL
In vivo; uPA(−/−)/SCID, po, uPA(−/−)/SCID mouse
  bioavailability: 2.22%
In vivo; uPA(−/−)/SCID, po, oral administration, uPA(−/−)/SCID mouse, serum, dose per drug in table
  Cmax: 130 ng/mL
In vivo; uPA(−/−)/SCID, po, t 1/2 Distribution phase, oral administration, uPA(−/−)/SCID mouse, time window per footnote
  half-life: 2.45 h

## Cn1c(=O)c2c(ncn2C)n(C)c1=O [Caffeine, caffeine]
[1]
  AUC in high-replacement chimeric mice compared with low-replacement chimeric mice: significantly lower
  AUC: 65700 ng·h/mL
CYP2D6; mouse
  AUC: 97100 ng·h/mL
CYP2D6; [2]
  half-life: 3.4 h
In vivo; uPA(+/+)/SCID, iv
  t 1/2 Distribution phase: 0.437^#3 hr
In vivo; uPA(+/+)/SCID, iv, t 1/2 Distribution phase
  half-life: 0.809 h
In vivo; uPA(+/+)/SCID, po
  t 1/2 Distribution phase: 2.16^#3 hr
In vivo; uPA(+/+)/SCID, po, t 1/2 Distribution phase
  half-life: 3.45 h
In vivo; uPA(−/−)/SCID, iv
  AUC: 4070 ng·h/mL
In vivo; [3]
  half-life: 0.609 h
In vivo; [4]
  half-life: 0.505 h
In vivo; uPA(−/−)/SCID, po
  AUC: 33200 ng·h/mL
  bioavailability: 81.6%
  Cmax: 8800 ng/mL
In vivo; uPA(−/−)/SCID, po, t 1/2 Elimination phase
  half-life: 0.82 h
